Measurements as given in patent US20060069132A1, “Azolecarboxamide herbicides” (priority 2004, published 2006).

Experiments:
large crabgrass = assay: Test E pre-/postemergence herbicide test; type: in vivo, Digitaria sanguinalis; settings: Preemergence
In short: (§1)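 Postemergence treatment targeted plants at the 1- to 4-leaf stage (2–18 cm), alongside preemergence treatment of planted seed; both used a non-phytotoxic solvent mixture with surfactant. Visual ratings, 0 = no effect to 100 = complete control, were taken 12 to 14 days later.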

windgrass = assay: Test C postemergence herbicide test; type: in vivo, Apera spica-venti
In short: (§2)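 After a postemergence application at 1 to 4 leaves (plants 2–18 cm high), or at 2 leaves for barnyardgrass in flooded paddy, plants stayed in the greenhouse for 12 to 14 days. Damage was then judged visually relative to control plants, with 100 indicating complete control.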

winter barley = assay: Test C postemergence herbicide test; type: in vivo, Hordeum vulgare
In short: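 Scoring by eye, 12–14 days post-treatment, greenhouse-held plants vs. controls; 0 no effect, 100 complete control. Sprayed at 1–4 leaves (2–18 cm); paddy barnyardgrass at 2 leaves, flooded.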

wild oat = assay: Test C postemergence herbicide test; type: in vivo, Avenafatua
In short: as §2

goosegrass = assay: Test E pre-/postemergence herbicide test; type: in vivo, Eleusine indica; settings: Preemergence
In short: as §1

Canada horseweed = assay: Test E pre-/postemergence herbicide test; type: in vivo, Erigeron Canadensis; settings: Preemergence
In short: as §1

downy bromegrass = assay: Test E pre-/postemergence herbicide test; type: in vivo, Bromus tectorum; settings: Preemergence
In short: as §1

common groundsel = assay: Test E pre-/postemergence herbicide test; type: in vivo, Senecio vulgaris; settings: Preemergence
In short: as §1

common mallow = assay: Test E pre-/postemergence herbicide test; type: in vivo, Malva sylvestris; settings: Preemergence
In short: as §1

pitted morningglory = assay: Test E pre-/postemergence herbicide test; type: in vivo, Ipomoea lacunosa; settings: Preemergence
In short: as §1

canarygrass = assay: Test C postemergence herbicide test; type: in vivo, Phalaris minor
In short: as §2

guineagrass = assay: Test E pre-/postemergence herbicide test; type: in vivo, Panicum maximum; settings: Preemergence
In short: as §1

green foxtail = assay: Test C postemergence herbicide test; type: in vivo, Setaria viridis
In short: as §2

[1] = 125 g ai/ha, scale 0 (no effect) to 100 (complete control)
[2] = 250 g ai/ha, scale 0 (no effect) to 100 (complete control)
[3] = 500 g ai/ha, scale 0 (no effect) to 100 (complete control)
[4] = Postemergence, 500 g ai/ha, scale 0 to 100
[5] = Postemergence, 250 g ai/ha, scale 0 to 100, 0 no effect, 100 complete control
[6] = postemergence, 125 g ai/ha, scale 0 to 100
[7] = postemergence, 62 g ai/ha, scale 0 to 100

CCNC(=O)c1cccc(NC(=O)c2cc(C(C)(C)C)nn2CC)n1 [Compound 144]
Plant response rating, Crabgrass, Large (large crabgrass; 62 g ai/ha, scale 0 to 100): 0 | Plant response rating, Crabgrass, Large (large crabgrass; [1]): 40 | Plant response rating, Crabgrass, Large (large crabgrass; [2]): 50 | Plant response rating, Crabgrass, Large (large crabgrass; [3]): 60 | Windgrass plant response rating (windgrass; [4]): 70 | Plant response rating, Windgrass (windgrass; [5]): 60 | Plant response rating, Windgrass (windgrass; [6]): 60 | Plant response rating, Windgrass (windgrass; [7]): 50 | Barley, Winter plant response rating (winter barley; [4]): 40 | Plant response rating, Barley, Winter (winter barley; Postemergence, 125 g ai/ha, scale 0 to 100, 0 no effect, 100 complete control): 20 | Plant response rating, Barley, Winter (winter barley; [5]): 30 | Plant response rating, Barley, Winter (winter barley; postemergence, 62 g ai/ha, scale 0 to 100 (0 no effect, 100 complete control)): 0 | Oat, Wild plant response rating (wild oat; [4]): 50 | Plant response rating, Oat, Wild (wild oat; [5]): 50 | Plant response rating, Oat, Wild (wild oat; [6]): 50 | Plant response rating, Oat, Wild (wild oat; [7]): 30 | Plant response rating, Goosegrass (goosegrass; 62 g ai/ha, scale 0 to 100): 20 | Plant response rating, Goosegrass (goosegrass; [1]): 50 | Plant response rating, Goosegrass (goosegrass; [2]): 80 | Plant response rating, Goosegrass (goosegrass; [3]): 80 | Plant response rating, Horseweed (Canada horseweed; 62 g ai/ha, scale 0 to 100): 70 | Plant response rating, Horseweed (Canada horseweed; [1]): 100 | Plant response rating, Horseweed (Canada horseweed; [2]): 100 | Plant response rating, Horseweed (Canada horseweed; [3]): 100 | Plant response rating, Bromegrass, Downy (downy bromegrass; 62 g ai/ha, scale 0 to 100): 20 | Plant response rating, Bromegrass, Downy (downy bromegrass; [1]): 50 | Plant response rating, Bromegrass, Downy (downy bromegrass; [2]): 60 | Plant response rating, Bromegrass, Downy (downy bromegrass; [3]): 80 | Plant response rating, Groundsel (common groundsel; 62 g ai/ha, scale 0 to 100): 10 | Plant response rating, Groundsel (common groundsel; [1]): 100 | Plant response rating, Groundsel (common groundsel; [2]): 100 | Plant response rating, Groundsel (common groundsel; [3]): 100 | Plant response rating, Mallow (common mallow; 62 g ai/ha, scale 0 to 100): 60 | Plant response rating, Mallow (common mallow; [1]): 60 | Plant response rating, Mallow (common mallow; [2]): 70 | Plant response rating, Mallow (common mallow; [3]): 95 | Plant response rating, Morningglory (pitted morningglory; 62 g ai/ha, scale 0 to 100): 0 | Plant response rating, Morningglory (pitted morningglory; [1]): 20 | Plant response rating, Morningglory (pitted morningglory; [2]): 20 | Plant response rating, Morningglory (pitted morningglory; [3]): 100 | Canarygrass plant response rating (canarygrass; [4]): 50 | Plant response rating, Canarygrass (canarygrass; [5]): 40 | Plant response rating, Canarygrass (canarygrass; [6]): 40 | Plant response rating, Canarygrass (canarygrass; [7]): 40 | Plant response rating, Guineagrass (guineagrass; 62 g ai/ha, scale 0 to 100): 10 | Plant response rating, Guineagrass (guineagrass; [1]): 20 | Plant response rating, Guineagrass (guineagrass; [2]): 60 | Plant response rating, Guineagrass (guineagrass; [3]): 80 | Foxtail, Green plant response rating (green foxtail; [4]): 60 | Plant response rating, Foxtail, Green (green foxtail; [5]): 60 | Plant response rating, Foxtail, Green (green foxtail; [6]): 60 | Plant response rating, Foxtail, Green (green foxtail; [7]): 40
